Measurements taken from patent publication US10292949B2, “Pharmaceutical composition comprising rimeporide for treating diseases associated with insulin resistance and β-cell dysfunction” (Merck Patent GmbH, priority 2008, dated 2019).

Tests used:
Type in all cases: in vivo, rat
obese Zucker fa/fa rats [1] = assay: Pharmacological Study Report II: 2H-glucose disposal test (2H-GDT) on Days 0, 14 and 28
Protocol: (§1) Thirty-six obese Zucker fa/fa and six lean Zucker fa/? male rats obtained from Charles River, were housed under normal vivarium conditions on a 12 hour light/dark cycle. The rats were kept two to a cage with food and water available ad lib, except during the weekly, 4 hour fasts. Water continued to be available during these fasts.
(§2) Compound A corresponds to Cariporide. Compound B corresponds to 2-Methyl-4,5-di-(methylsulfonyl)-benzoyl-guanidine hydrochloride hydrate. Compounds A and B were supplied in powder form by Merck Serono. Drugs were incorporated into a pelleted diet (LabDiet, 5001) by Research Diets, Inc (New Brunswick, N.J.) at concentrations of 0.44 g/kg or 0.88 g/kg of diet to yield approximate doses of 40 or 80 mg/kg. The concentration was calculated based on the assumption that a 300 g rat would eat about 30 g/d of chow. The same chow, but without drug, was fed to rats of both the lean and fa/fa control group animals.
(§3) • 1. ZF rats (fa/fa) (n=6) chow without drug • 2. ZF rats (fa/fa) (n=6) compound A (40 mg/kg/day) • 3. ZF rats (fa/fa) (n=6) compound A (80 mg/kg/day) • 4. ZF rats (fa/fa) (n=6) compound B (40 mg/kg/day) • 5. ZF rats (fa/fa) (n=6) compound B (80 mg/kg/day) • 6. lean Zucker rats (fa/?) (n=6) chow without drug Dosing Regime
Insulin sensitivity (SI) and pancreatic compensation (PC) were measured by conducting ^2H-Glucose disposal test on Days 0, 14 and 28.
Time −4 h: Before the fast was begun on the morning of the GDT, a blood sample was taken to determine the random glucose level (see above). An additional blood sample was collected to determine the baseline ^2H2O and ^18O enrichments. The rats were weighed and the 4 h fast was begun. Water was available during the fast.
Time −3 h: One 1 hour after the start of the fast, 1.75 mg/g body weight of 10% H2^18O was administered by oral gavage (^2H2O-free H2O^18 water; 10% ^18O atom from Spectra; Cat. No 51350).
Time 0: 4 hours after the start of the fast, the blood glucose and insulin levels were determined. Rats received 4 ml/kg of a 50% glucose solution (comprised of 25% [6,6-^2H2] glucose and 25% D-glucose) by oral gavage.
At times 15, 30, 60 and 90 min post glucose challenge, blood glucose concentrations were again determined by a glucometer reading from tail vein blood. Additional blood samples were collected for insulin determinations. At 60 and 90 min post glucose challenge, whole blood was collected to determine the ^2H2O and H2^18O enrichments. All blood samples were centrifuged and the plasma was stored at −20° C. until assayed. The deuterium and oxygen-18 isotope enrichments of body water were determined by IRIS analysis of the water distillate of the plasma samples.
^2H2O enrichment was converted to mmol by multiplying enrichment (^2H2O APE) by the total body water pool size and dividing by 20 (molecular weight of ^2H2O). Total ^2H2O produced was calculated as the percent of the [6,6-^2H2] glucose load administered. Plasma insulin and glucose areas under the curve (AUC 60 min) were calculated using the trapezoidal method (GraphPad Prism).
Two parameters were calculated from the ^2H-GDT: • 1. Insulin sensitivity index (SI)=^2H2O production (% load)/(glucose AUC×insulin AUC). • 2. Pancreatic compensation (PC)=the absolute ^2H2O production as a percent of total [6,6-^2H2] glucose load (% load)/the integrated glucose response (glucose AUC; to correct for insulin-independent utilization). Statistics
Overall results of glucose and insulin measures were analyzed by a 2 way repeated measures ANOVA using drug and time (repeated) as factors. The primary analysis was followed by Bonferroni posttests to compare all groups. Data are considered significant at p<0.05. AUC 60 min values for glucose and insulin were analyzed by 1 way ANOVA followed by Tukey's comparison of all groups.

[2] = tested on: Obese, insulin resistant ZF (fa/fa) rats; assay: Pharmacological Study Report I: random and fasting blood glucose and plasma insulin levels; settings: Compound A 150 mg/kg gavage twice daily, Compound B 40 mg/kg/day in chow
Protocol: Obese, insulin resistant ZF (fa/fa) rats, which are treated from the age of 8-12 weeks, were used as IR model. Rats were housed with a 12-h light/dark cycle and free access to food and water unless otherwise noted. Studies were approved by the Institutional Animal Care and Use Committee. There were a total of 18 animals in the study (8 week-old males, provided by Charles River). Animals were randomized into 3 groups (vehicle group, Compound A group, Compound B group, n=6 per group) based on random glucose level at the beginning of the study: • Group 1: ZF rats (fa/fa) (n=6), compound A (150 mg/kg via gavage) • Group 2: ZF rats (fa/fa) (n=6), compound B (40 mg/kg/day as admixture to the chow) • Group 3: ZF rats (fa/fa) (n=6), vehicle treatment (control chow, vehicle gavage)
Group 1 and 3 animals were treated with compound A or vehicle (water) for 4 weeks (from age 8-12 weeks) via oral gavage, twice daily. Chow containing compound B was fed to Group 2 ad lib. Group 1 and Group 3 were fed with chow without compound B ad lib.
Random morning blood was withdrawn from ad libitium fed rats by a small cut in the tip of the tail. Blood was collected in heparinized tubes. Blood glucose concentrations were measured as per study design using a One-Touch glucometer (Lifescan Inc, Milptias, Calif.). Blood samples were placed on ice and centrifuged, and plasma stored at −20° C. until insulin was assayed. Rat plasma insulin concentration was measured with rat-specific ELISA kit (Crystal Chem Inc, Downers Grove, Ill.).
Random morning blood glucose levels were measured weekly between 9-11 a.m.
At the end of the study, rats were fasted for 4 hours and glucose and insulin level were measured.

obese Zucker fa/fa rats [3] = assay: Pharmacological Study Report II: random and fasting (4 h) blood glucose and plasma insulin levels; settings: for Baseline Insulin (fasting) / Change in Insulin (fasting) / Week 4 Insulin (fasting): Mean ± SD; for Change in Insulin (fasting): change over the 4 week treatment period; for Week 4 Insulin (fasting): week 4 of treatment
Protocol: as §1, §2
One week prior to the start of the study, all rats were weighed. After a 4 hour fast, a blood sample was obtained for the determination of blood glucose, insulin, and glycosylated hemoglobin levels (HbA1c). Animals were then sorted on the basis of these parameters into the groups listed below. Rats were eight weeks of age at the onset of treatment.
as §3
Treatment appropriate chow was continuously available for 4 weeks except during scheduled 4 h fasts conducted once per week.
Both random and fasting (4 h) blood glucose levels were determined using a hand-held glucometer (OneTouch Ultra, Lifescan, Inc. Milapitas, Calif.) on blood obtained from tail capillary samples. Plasma insulin levels were determined by a rat specific ELISA (Ultra Sensitive Rat Insulin ELISA Kit, Crystal Chem, Inc., Chicago, Ill.). The 4 h fast period started at 9 a.m. and ended after a blood draw at 1 p.m.

[4] = 40 and 80 mg/kg (neither dose), 4 weeks

For CC(C)c1ccc(C(=O)NC(=N)N)cc1S(C)(=O)=O [Compound A, Cariporide], the “Glucose level at the 90 min time point of the 2H-GDT vs fa/fa vehicle” value (obese Zucker fa/fa rats [1]; 40 mg/kg, 4 weeks of treatment) was “elevated above that of the fa/fa vehicle treated rats”, the “Blood glucose and insulin concentrations in response to glucose challenge (2H-GDT)” value (obese Zucker fa/fa rats [1]; 4 weeks after start of treatment, 40 and 80 mg/kg) was “continued to have elevated” and the Glucose tolerance (obese Zucker fa/fa rats [1]; 4 weeks of treatment) was “did not improve”. The “Glucose levels (either fasting or in response to challenge)” value (obese Zucker fa/fa rats [1]; [4]) was “Neither dose of Compound A significantly improved”, the “Insulin sensitivity (SI)” value (obese Zucker fa/fa rats [1]; [4]) was “Neither dose of Compound A significantly improved” and the “Pancreatic compensation (PC)” value (obese Zucker fa/fa rats [1]; [4]) was “Neither dose of Compound A significantly improved”. The “Glucose or insulin response to glucose challenge (2H-GDT)” value (obese Zucker fa/fa rats [1]; after 2 weeks of treatment, 40 and 80 mg/kg) was “did not affect”, the “Random morning blood glucose level vs vehicle group” value ([2]; 4 weeks) was “trended towards lower glucose level” and the “Fasting glucose levels, post vs pre treatment” value ([2]; 4 h fast, after 4 weeks) was “trended towards lower values post treatment”. The “Fasting insulin levels compared to pre-treatment levels” value ([2]; 4 h fast, after 4 weeks) was “significantly lower”, the Fasting glucose concentration (obese Zucker fa/fa rats [3]; 40 mg/kg, after 4 weeks of administration, 4 h fast) was “increased” and the “Fasting insulin relative to the fa/fa vehicle control” value (obese Zucker fa/fa rats [3]; 80 mg/kg, 4th week of treatment) was “significantly decreased”. The “Baseline Insulin (fasting)” value (obese Zucker fa/fa rats [3]; 40 mg/kg group) was 17.6 ± 5.1 ng/mL, the “Baseline Insulin (fasting)” value (obese Zucker fa/fa rats [3]; 80 mg/kg group) was 15.9 ± 5.5 ng/mL and the “Change in Insulin (fasting)” value (obese Zucker fa/fa rats [3]; 40 mg/kg) was 0.6 ± 9.6 ng/mL. The “Change in Insulin (fasting)” value (obese Zucker fa/fa rats [3]; 80 mg/kg) was -3.4 ± 8.2 ng/mL, the “Week 4 Insulin (fasting)” value (obese Zucker fa/fa rats [3]; 40 mg/kg in chow) was 18.2 ± 11.8 ng/mL and the “Week 4 Insulin (fasting)” value (obese Zucker fa/fa rats [3]; 80 mg/kg in chow) was 12.5 ± 7.5 ng/mL.
